According to patent US8378134B2, “Hydroxylated contrast enhancement agents” (General Electric Company, priority 2009, dated 2013):

Experiment: Relaxivity determinations (T1 and T2 relaxation times, Bruker Minispec mq60)
Type: physicochemical
Settings: in PBS, 0.25-1 mM Fe chelate, 60 MHz, 40° C.; gradient of 1/T1 vs Fe chelate concentration
Experimental: A stock solution having a concentration of 1 mM of the contrast enhancement agent was prepared in phosphate buffered saline (PBS) and the iron concentration was verified by elemental analysis. Separate 0.75 mM, 0.50 mM and 0.25 mM samples were prepared from the stock by dilution in PBS and the T1 and T2 relaxations times were recorded in triplicate for each using sample on a Bruker Minispec mq60 instrument (60 MHz, 40° C.). The relaxivities (r1 and r2) were obtained as the gradient of 1/Tx (x=1,2) plotted against Fe chelate concentration following linear least squares regression analysis. Data for contrast enhancement agents having structures III, IV, V, VI, VII, and VII, and a non-hydroxylated control contrast enhancement agent.

Substance | r1 relaxivity
FeHBED(Me)2(OH)2 [III] | 0.9 mM⁻¹ s⁻¹
FeHBED(OH')2 [VII] | 1.0 mM⁻¹ s⁻¹
FeHBED(OH)2 [IV] | 0.8 mM⁻¹ s⁻¹
FeHBED(OH) [VI] | 1.1 mM⁻¹ s⁻¹
